Test results reported in paper PMC7525662, “Preclinical dosimetry models and the prediction of clinical doses of novel positron emission tomography radiotracers” (Scientific Reports, 2020).
Marks after values point to notes of the source that are not given here. One block for each molecule: values may come before it.

Columns and labels:
Parameters in all cases: species or system Sprague–Dawley rats
[1] = Residence times in rat source organs from whole-body PET, iterative reconstruction; conditions: in vivo, iv
Protocol: Immediately after radiotracer administration, a 240 min emission scan using 4 beds (50% overlap) was obtained using 3-dimensional 1:5 mode and re-binned as follows: 7 × 1 min, 2 × 5 min and 4 × 10 min. Throughout the PET/CT scanning session, animal temperature and respiration rate were monitored and controlled. PET studies were reconstructed using filtered-back projection (FBP) and Mediso’s iterative Tera-Tomo 3D reconstruction algorithm with the following settings: 4 iterations, 6 subsets, full detector model, normal regularization, spike filter on, voxel size 0.4 mm and 400‒600 keV energy window. PET data were corrected for randoms, scatter and attenuation. […] Then, PMOD’s contours interpolation tool was used to interpolate ROIs for each organ into a corresponding volume-of-interest (VOI). A static cuboidal VOI was also drawn to include the animal whole-body. Time-activity curves for each source organ, whole-body and remainder of the body were plotted. […] Residence times (τ) were determined for each radiotracer in source organs, whole-body and remaining (any activity assigned to the whole-body but not assigned to a source organ). Each preclinical source organ’s τ was determined by calculating the area under its respective time-activity curve (activity normalised to the percentage maximum injected dose as a function of time) using the trapezoid method. […] From each individual animal, eight dosimetry models were constructed from all possible combinations of image reconstruction method (FBP or iterative), τ (non-normalised or normalised to human organ masses), and sex of phantom (male or female).

[2] = Residence times normalised to human organ masses, iterative reconstruction; conditions: rat, in vivo
Protocol: PET studies were reconstructed using filtered-back projection (FBP) and Mediso’s iterative Tera-Tomo 3D reconstruction algorithm with the following settings: 4 iterations, 6 subsets, full detector model, normal regularization, spike filter on, voxel size 0.4 mm and 400‒600 keV energy window. PET data were corrected for randoms, scatter and attenuation. Time-activity curves for each source organ, whole-body and remainder of the body were plotted. […] Residence times (τ) were determined for each radiotracer in source organs, whole-body and remaining (any activity assigned to the whole-body but not assigned to a source organ). Each preclinical source organ’s τ was determined by calculating the area under its respective time-activity curve (activity normalised to the percentage maximum injected dose as a function of time) using the trapezoid method. […] From each individual animal, eight dosimetry models were constructed from all possible combinations of image reconstruction method (FBP or iterative), τ (non-normalised or normalised to human organ masses), and sex of phantom (male or female). Supplementary table 1. Scaling (normalisation) factors applied to residence times of PET radiotracers in male Sprague-Dawley rats to predict human adult residence times. […] Stabin et al. 2006 ^4); WB: Whole Body.

[3] = OLINDA/EXM predicted clinical doses: adult female phantom, non-normalised τ, FBP; conditions: rat, in vivo
Protocol: (§1) PET studies were reconstructed using filtered-back projection (FBP) and Mediso’s iterative Tera-Tomo 3D reconstruction algorithm with the following settings: 4 iterations, 6 subsets, full detector model, normal regularization, spike filter on, voxel size 0.4 mm and 400‒600 keV energy window. PET data were corrected for randoms, scatter and attenuation. Time-activity curves for each source organ, whole-body and remainder of the body were plotted. […] Residence times (τ) were determined for each radiotracer in source organs, whole-body and remaining (any activity assigned to the whole-body but not assigned to a source organ). Each preclinical source organ’s τ was determined by calculating the area under its respective time-activity curve (activity normalised to the percentage maximum injected dose as a function of time) using the trapezoid method. […] From each individual animal, eight dosimetry models were constructed from all possible combinations of image reconstruction method (FBP or iterative), τ (non-normalised or normalised to human organ masses), and sex of phantom (male or female). Supplementary table 6. Predicted clinical absorbed organ doses and whole-body effective doses of PET radiotracers using non-normalised (preclinical) adult female source organ residence times from filtered backprojection reconstructions.

[4] = OLINDA/EXM predicted clinical doses: adult male phantom, normalised τ, FBP; conditions: rat, in vivo
Protocol: as §1, with “female).” for “female). Supplementary table 6. Predicted clinical absorbed organ doses and whole-body effective doses of PET radiotracers using non-normalised (preclinical) adult female source organ residence times from filtered backprojection reconstructions.”

- Residence Time (h), Average: Brain [1]: 0.0254 h
- Residence Time (h), Average: Heart [1]: 0.0387 h
- Residence Time (h), Average: Intestine [1]: 0.287 h
- Residence Time (h), Average: Kidneys [1]: 0.0499 h
- Residence Time (h), Average: Liver [1]: 0.0417 h
- Residence Time (h), Average: Lungs [1]: 0.0166 h
- Residence Time (h), Average: Remaining [1]: 1.35 h
- Residence Time (h), Average: Urinary Bladder [1]: 1.15 h
- Normalised Residence Time (h), Average: Remaining [2]: 1.36 h
- Effective Dose (mSv/MBq), Average ± SD [3]: 7.08E-02 mSv/MBq
- Estimated Absorbed Dose of Organ, Average: Adrenals [3]: 1.56E-02 mGy/MBq
- Estimated Absorbed Dose of Organ, Average: Brain [3]: 5.39E-03 mGy/MBq
- Estimated Absorbed Dose of Organ, Average: Breasts [3]: 1.10E-02 mGy/MBq
- Estimated Absorbed Dose of Organ, Average: Gallbladder Wall [3]: 1.59E-02 mGy/MBq
- Estimated Absorbed Dose of Organ, Average: Heart Wall [3]: 1.95E-02 mGy/MBq
- Estimated Absorbed Dose of Organ, Average: Kidneys [3]: 2.28E-02 § mGy/MBq
- Estimated Absorbed Dose of Organ, Average: LLI Wall [3]: 2.63E-01 † mGy/MBq
- Estimated Absorbed Dose of Organ, Average: Liver [3]: 1.05E-02 mGy/MBq
- Estimated Absorbed Dose of Organ, Average: Lungs [3]: 1.03E-02 mGy/MBq
- Estimated Absorbed Dose of Organ, Average: Muscle [3]: 1.67E-02 mGy/MBq
- Estimated Absorbed Dose of Organ, Average: Osteogenic Cells [3]: 2.29E-02 mGy/MBq
- Estimated Absorbed Dose of Organ, Average: Ovaries [3]: 4.29E-02 mGy/MBq
- Estimated Absorbed Dose of Organ, Average: Pancreas [3]: 1.65E-02 mGy/MBq
- Estimated Absorbed Dose of Organ, Average: Red Marrow [3]: 1.64E-02 mGy/MBq
- Estimated Absorbed Dose of Organ, Average: Skin [3]: 1.14E-02 mGy/MBq
- Estimated Absorbed Dose of Organ, Average: Small Intestine [3]: 2.68E-02 mGy/MBq
- Estimated Absorbed Dose of Organ, Average: Spleen [3]: 1.55E-02 mGy/MBq
- Estimated Absorbed Dose of Organ, Average: Stomach Wall [3]: 1.66E-02 mGy/MBq
- Estimated Absorbed Dose of Organ, Average: Thymus [3]: 1.38E-02 mGy/MBq
- Estimated Absorbed Dose of Organ, Average: Thyroid [3]: 1.24E-02 mGy/MBq
- Estimated Absorbed Dose of Organ, Average: Total Body [3]: 1.72E-02 mGy/MBq
- Estimated Absorbed Dose of Organ, Average: ULI Wall [3]: 2.24E-02 mGy/MBq
- Estimated Absorbed Dose of Organ, Average: Urinary Bladder Wall [3]: 4.48E-01 ‡ mGy/MBq
- Estimated Absorbed Dose of Organ, Average: Uterus [3]: 4.34E-02 mGy/MBq
- Effective Dose (mSv/MBq), Average ± SD [4]: 2.62E-02 mSv/MBq
- Estimated Absorbed Dose of Organ, Average: Adrenals [4]: 1.23E-02 mGy/MBq
- Estimated Absorbed Dose of Organ, Average: Brain [4]: 8.73E-03 mGy/MBq
- Estimated Absorbed Dose of Organ, Average: Breasts [4]: 9.14E-03 mGy/MBq
- Estimated Absorbed Dose of Organ, Average: Gallbladder Wall [4]: 1.25E-02 mGy/MBq
- Estimated Absorbed Dose of Organ, Average: Heart Wall [4]: 3.82E-02 mGy/MBq
- Estimated Absorbed Dose of Organ, Average: Kidneys [4]: 1.43E-02 § mGy/MBq
- Estimated Absorbed Dose of Organ, Average: Liver [4]: 7.98E-03 mGy/MBq
- Estimated Absorbed Dose of Organ, Average: Lungs [4]: 1.48E-02 mGy/MBq
- Estimated Absorbed Dose of Organ, Average: Muscle [4]: 1.13E-02 mGy/MBq
- Estimated Absorbed Dose of Organ, Average: Osteogenic Cells [4]: 1.67E-02 mGy/MBq
- Estimated Absorbed Dose of Organ, Average: Pancreas [4]: 1.31E-02 mGy/MBq
- Estimated Absorbed Dose of Organ, Average: Red Marrow [4]: 1.11E-02 mGy/MBq
- Estimated Absorbed Dose of Organ, Average: Skin [4]: 8.54E-03 mGy/MBq
- Estimated Absorbed Dose of Organ, Average: Small Intestine [4]: 1.55E-02 mGy/MBq
- Estimated Absorbed Dose of Organ, Average: Spleen [4]: 1.20E-02 mGy/MBq
- Estimated Absorbed Dose of Organ, Average: Stomach Wall [4]: 1.26E-02 mGy/MBq
- Estimated Absorbed Dose of Organ, Average: Testes [4]: 1.22E-02 mGy/MBq
- Estimated Absorbed Dose of Organ, Average: Thymus [4]: 1.17E-02 mGy/MBq
- Estimated Absorbed Dose of Organ, Average: Thyroid [4]: 1.09E-02 ± 1.11E-03 mGy/MBq
- Estimated Absorbed Dose of Organ, Average: Total Body [4]: 1.17E-02 mGy/MBq
- Estimated Absorbed Dose of Organ, Average: ULI Wall [4]: 1.39E-02 mGy/MBq
- Estimated Absorbed Dose of Organ, Average: Urinary Bladder Wall [4]: 8.88E-02 ‡ mGy/MBq
Molecule: O=C[C@H]([18F])[C@@H](O)[C@H](O)[C@H](O)CO [FDG, 2-deoxy-2-[^18F]fluoro-D-glucose]

- Residence Time (h), Average: Brain [1]: 0.00225 h
- Residence Time (h), Average: Heart [1]: 0.00473 h
- Residence Time (h), Average: Intestine [1]: 0.212 h
- Residence Time (h), Average: Kidneys [1]: 0.0652 h
- Residence Time (h), Average: Liver [1]: 0.0391 h
- Residence Time (h), Average: Lungs [1]: 0.00647 h
- Residence Time (h), Average: Remaining [1]: 0.996 h
- Residence Time (h), Average: Urinary Bladder [1]: 1.44 h
- Normalised Residence Time (h), Average: Remaining [2]: 1 h
- Effective Dose (mSv/MBq), Average ± SD [3]: 6.49E-02 mSv/MBq
- Estimated Absorbed Dose of Organ, Average: Adrenals [3]: 1.46E-02 mGy/MBq
- Estimated Absorbed Dose of Organ, Average: Brain [3]: 3.20E-03 mGy/MBq
- Estimated Absorbed Dose of Organ, Average: Breasts [3]: 1.01E-02 mGy/MBq
- Estimated Absorbed Dose of Organ, Average: Gallbladder Wall [3]: 1.49E-02 mGy/MBq
- Estimated Absorbed Dose of Organ, Average: Heart Wall [3]: 9.41E-03 mGy/MBq
- Estimated Absorbed Dose of Organ, Average: Kidneys [3]: 2.70E-02 § mGy/MBq
- Estimated Absorbed Dose of Organ, Average: LLI Wall [3]: 1.62E-01 ‡ mGy/MBq
- Estimated Absorbed Dose of Organ, Average: Liver [3]: 9.39E-03 mGy/MBq
- Estimated Absorbed Dose of Organ, Average: Lungs [3]: 7.79E-03 mGy/MBq
- Estimated Absorbed Dose of Organ, Average: Muscle [3]: 1.61E-02 mGy/MBq
- Estimated Absorbed Dose of Organ, Average: Osteogenic Cells [3]: 2.13E-02 mGy/MBq
- Estimated Absorbed Dose of Organ, Average: Ovaries [3]: 3.85E-02 mGy/MBq
- Estimated Absorbed Dose of Organ, Average: Pancreas [3]: 1.53E-02 mGy/MBq
- Estimated Absorbed Dose of Organ, Average: Red Marrow [3]: 1.52E-02 mGy/MBq
- Estimated Absorbed Dose of Organ, Average: Skin [3]: 1.08E-02 mGy/MBq
- Estimated Absorbed Dose of Organ, Average: Small Intestine [3]: 2.41E-02 mGy/MBq
- Estimated Absorbed Dose of Organ, Average: Spleen [3]: 1.45E-02 mGy/MBq
- Estimated Absorbed Dose of Organ, Average: Stomach Wall [3]: 1.50E-02 mGy/MBq
- Estimated Absorbed Dose of Organ, Average: Thymus [3]: 1.25E-02 mGy/MBq
- Estimated Absorbed Dose of Organ, Average: Thyroid [3]: 1.15E-02 mGy/MBq
- Estimated Absorbed Dose of Organ, Average: Total Body [3]: 1.63E-02 mGy/MBq
- Estimated Absorbed Dose of Organ, Average: ULI Wall [3]: 2.11E-02 mGy/MBq
- Estimated Absorbed Dose of Organ, Average: Urinary Bladder Wall [3]: 6.07E-01 † mGy/MBq
- Estimated Absorbed Dose of Organ, Average: Uterus [3]: 4.81E-02 mGy/MBq
- Effective Dose (mSv/MBq), Average ± SD [4]: 2.18E-02 mSv/MBq
- Estimated Absorbed Dose of Organ, Average: Adrenals [4]: 1.10E-02 mGy/MBq
- Estimated Absorbed Dose of Organ, Average: Brain [4]: 3.17E-03 mGy/MBq
- Estimated Absorbed Dose of Organ, Average: Breasts [4]: 8.04E-03 mGy/MBq
- Estimated Absorbed Dose of Organ, Average: Gallbladder Wall [4]: 1.15E-02 mGy/MBq
- Estimated Absorbed Dose of Organ, Average: Heart Wall [4]: 1.15E-02 mGy/MBq
- Estimated Absorbed Dose of Organ, Average: Kidneys [4]: 1.64E-02 § mGy/MBq
- Estimated Absorbed Dose of Organ, Average: LLI Wall [4]: 5.79E-02 ‡ mGy/MBq
- Estimated Absorbed Dose of Organ, Average: Liver [4]: 6.81E-03 mGy/MBq
- Estimated Absorbed Dose of Organ, Average: Lungs [4]: 8.79E-03 mGy/MBq
- Estimated Absorbed Dose of Organ, Average: Muscle [4]: 1.05E-02 mGy/MBq
- Estimated Absorbed Dose of Organ, Average: Osteogenic Cells [4]: 1.53E-02 mGy/MBq
- Estimated Absorbed Dose of Organ, Average: Pancreas [4]: 1.17E-02 mGy/MBq
- Estimated Absorbed Dose of Organ, Average: Red Marrow [4]: 9.94E-03 mGy/MBq
- Estimated Absorbed Dose of Organ, Average: Skin [4]: 7.88E-03 mGy/MBq
- Estimated Absorbed Dose of Organ, Average: Small Intestine [4]: 1.40E-02 mGy/MBq
- Estimated Absorbed Dose of Organ, Average: Spleen [4]: 1.09E-02 mGy/MBq
- Estimated Absorbed Dose of Organ, Average: Stomach Wall [4]: 1.13E-02 mGy/MBq
- Estimated Absorbed Dose of Organ, Average: Testes [4]: 1.18E-02 mGy/MBq
- Estimated Absorbed Dose of Organ, Average: Thymus [4]: 9.99E-03 mGy/MBq
- Estimated Absorbed Dose of Organ, Average: Thyroid [4]: 9.88E-03 mGy/MBq
- Estimated Absorbed Dose of Organ, Average: Total Body [4]: 1.05E-02 mGy/MBq
- Estimated Absorbed Dose of Organ, Average: ULI Wall [4]: 1.28E-02 mGy/MBq
- Estimated Absorbed Dose of Organ, Average: Urinary Bladder Wall [4]: 1.16E-01 † mGy/MBq
Molecule: NOTA-RGDfK [existing Al^18F-labelled NOTA-RGDfK peptide PET radiotracer; precursor NOTA-RGDfK (1)]
